Assay results reported in patent US20120165319A1, “INHIBITORS OF INTERLEUKIN-1 BETA CONVERTING ENZYME” (VERTEX PHARMACEUTICALS INCORPORATED, priority 1995, published 2012).
Read-outs that look alike come from different tables or passages of the source.

Key:
ICE = target: T1, ICE (Homo sapiens, UniProt P29466); test: Enzyme assay with UV-visible substrate (visible ICE assay, Succinyl-Tyr-Val-Ala-Asp-pNitroanilide); type: biochemical
T1 sequence (P29466 120-297 limits assumed): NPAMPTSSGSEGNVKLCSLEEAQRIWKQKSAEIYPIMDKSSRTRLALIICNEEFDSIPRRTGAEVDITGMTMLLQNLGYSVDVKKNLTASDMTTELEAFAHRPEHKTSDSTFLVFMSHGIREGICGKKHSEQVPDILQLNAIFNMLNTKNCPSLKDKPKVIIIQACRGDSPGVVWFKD
T1 sequence (P29466 317-404 limits assumed): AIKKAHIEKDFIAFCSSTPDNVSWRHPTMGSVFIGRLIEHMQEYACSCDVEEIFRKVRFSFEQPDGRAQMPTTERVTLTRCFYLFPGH
In short: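 Buffer, ICE and inhibitor in DMSO are combined and held 15 min at room temperature. Succinyl-Tyr-Val-Ala-Asp-pNA is then added and absorbance at 405-603 nm tracked for 20 min at 37° C.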

[1] = tested on: IL-1β, human peripheral blood mononuclear cells (PBMC); test: PBMC cell assay: IL-1β assay with human PBMC or enriched adherent mononuclear cells, LPS-stimulated; type: cell-based
In short: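 Buffy-coat human PBMC at 6×10^6 cells/ml, or adherent monocytes enriched by 1 h adherence (2.5−3.0×10^5 cells/well), are given 5–6 compound dilutions bracketing the ICE Ki (final DMSO 0.1%) plus LPS at a final 5 ng/ml. They are incubated 16–18 hr at 37 °C, 5% CO2, and supernatant mature IL-1β is measured by ELISA, with duplicate cultures and duplicate ELISAs.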

IL-1β, human whole blood = test: Whole blood assay for IL-1β production; type: cell-based; settings: read-out: Whole human blood IC50
In short: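 Human whole blood collected on Na2EDTA was treated with serially diluted compound in saline and then stimulated with LPS at 5.0 ng/ml final, for 16-18 h at 30 °C, in duplicate or triplicate. Plasma IL-1β was measured by ELISA at 1:200 dilution.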

[2] = Homo sapiens, PBMC, * = values obtained upon reassay
[3] = * = values obtained upon reassay
[4] = Homo sapiens, * = values obtained upon reassay

CC(=O)Nc1ccc(C(=O)N[C@H]2CN(C(=O)CO)c3ccccc3N(CC(=O)N[C@H](C=O)CC(=O)O)C2=O)cc1 [Compound 911]
Ki (ICE; Table 17): 9 nM
IC50 ([1]; Homo sapiens, PBMC, Table 17): 3500 nM
IC50 (IL-1β, human whole blood; Homo sapiens, Table 17): 1900 nM

O=C[C@H](CC(=O)O)NC(=O)[C@@H]1CCCN2C(=O)CC[C@H](NC(=O)c3cc4ccccc4s3)C(=O)N12 [Compound 453]
Ki (ICE; Table 5): 0.65 nM
IC50 [1, 2]: 1300 nM
IC50 (IL-1β, human whole blood; [3]): 1600 nM
IC50 (IL-1β, human whole blood; [4]): 1900 nM

O=C[C@H](CC(=O)O)NC(=O)[C@@H]1CCCN2C(=O)CC[C@H](NC(=O)c3ccc(Oc4ccccc4)cc3)C(=O)N12 [Compound 443]
Ki (ICE; Table 5): 3.6 nM
IC50 [1, 2]: 2800 nM
IC50 (IL-1β, human whole blood; [4]): 1500 nM

O=C[C@H](CC(=O)O)NC(=O)[C@@H]1CCCN2C(=O)CC[C@H](NC(=O)/C=C/c3ccccc3)C(=O)N12 [Compound 494]
Ki (ICE; Table 5): 15 nM
IC50 [1, 3]: 1500 nM
IC50 [1, 2]: 1350 nM
IC50 (IL-1β, human whole blood; [4]): 7000 nM

CCCC(=O)Nc1ccc(C(=O)N[C@H]2CCC(=O)N3CCC[C@@H](C(=O)N[C@H](C=O)CC(=O)O)N3C2=O)cc1 [Compound 488]
Ki (ICE; Table 5): 1.5 nM
IC50 [1, 2]: 940 nM
IC50 (IL-1β, human whole blood; [4]): 750 nM

O=C[C@H](CC(=O)O)NC(=O)CN1C(=O)[C@@H](NC(=O)c2cc3ccccc3[nH]2)CN(C(=O)CO)c2ccccc21 [Compound 919]
Ki (ICE; Table 17): 4 nM
IC50 ([1]; Homo sapiens, PBMC, Table 17): 2000 nM
IC50 (IL-1β, human whole blood; Homo sapiens, Table 17): 4300 nM

O=C[C@H](CC(=O)O)NC(=O)CN1C(=O)[C@@H](NC(=O)C(=O)c2ccccc2)CN(C(=O)CO)c2ccccc21 [Compound 681, (3S)-3-[(3S)-2-Oxo-3-benzoylformylamino-5-(2-hydroxy)acetyl-2,3,4,5-tetrahydro-1H-1,5-benzodiazepine-1-acetylamino]-4-oxo-butyric acid]
Ki (ICE; Table 17): 9 nM
IC50 ([1]; Homo sapiens, PBMC, Table 17): 3000 nM
IC50 (IL-1β, human whole blood; Homo sapiens, Table 17): 5000 nM

COCC(=O)N1C[C@H](NC(=O)c2cc(Cl)c(O)c(Cl)c2)C(=O)N(CC(=O)N[C@H](C=O)CC(=O)O)c2ccccc21 [Compound 689a, (3S)-3-[(3S)-2-Oxo-3-(3,5-dichloro-4-hydroxybenzoyl)amino-5-methoxyacetyl-2,3,4,5-tetrahydro-1H-1,5-benzodiazepine-1-acetylamino]-4-oxo-butyric acid]
Ki (ICE; Table 17): 0.8 nM
IC50 ([1]; Homo sapiens, PBMC, Table 17): 910 nM
IC50 (IL-1β, human whole blood; Homo sapiens, Table 17): 2500 nM

Cn1c(C(=O)N[C@H]2CCC(=O)N3CCC[C@@H](C(=O)N[C@H](C=O)CC(=O)O)N3C2=O)cc2ccccc21 [Compound 433]
Ki (ICE; Table 5): 2.9 nM
IC50 [1, 3]: 1100 nM
IC50 [1, 2]: 1000 nM
IC50 (IL-1β, human whole blood; [4]): 1100 nM

COc1cccc(OC)c1C(=O)C(=O)N[C@H]1CN(C(C)=O)c2ccccc2N(CC(=O)N[C@H](C=O)CC(=O)O)C1=O [Compound 706]
Ki (ICE; Table 17): 5 nM
IC50 ([1]; Homo sapiens, PBMC, Table 17): 2400 nM
IC50 (IL-1β, human whole blood; Homo sapiens, Table 17): 5800 nM

O=C[C@H](CC(=O)O)NC(=O)[C@@H]1CCCN2C(=O)CC[C@H](NC(=O)c3c(Cl)cccc3Cl)C(=O)N12 [Compound 444]
Ki (ICE; Table 5): 15 nM
IC50 [1, 2]: 3500 nM
IC50 (IL-1β, human whole blood; [4]): 3500 nM

COc1c(Cl)cc(C(=O)NN2CCC(=O)N3CCC[C@@H](C(=O)N[C@H](C=O)CC(=O)O)N3C2=O)cc1Cl [Compound 1125]
Ki (ICE; Table 17): 55 nM
IC50 ([1]; Homo sapiens, PBMC, Table 17): 2300 nM
IC50 (IL-1β, human whole blood; Homo sapiens, Table 17): 9000 nM

Nc1ccc(C(=O)N[C@H]2CCC(=O)N3CCC[C@@H](C(=O)N[C@H](C=O)CC(=O)O)N3C2=O)cc1 [Compound 431]
Ki (ICE; Table 5): 8 nM
IC50 [1, 2]: > 8000 nM
IC50 (IL-1β, human whole blood; [4]): 8000 nM

CCC(=O)Nc1ccc(C(=O)N[C@H]2CCC(=O)N3CCC[C@@H](C(=O)N[C@H](C=O)CC(=O)O)N3C2=O)cc1 [Compound 485]
Ki (ICE; Table 5): 2 nM
IC50 [1, 2]: 900 nM
IC50 (IL-1β, human whole blood; [4]): 900 nM

CC(=O)OCC(=O)N1C[C@H](NC(=O)c2ccccc2)C(=O)N(CC(=O)N[C@H](C=O)CC(=O)O)c2ccccc21 [Compound 683, (3S)-3-[(3S)-2-Oxo-3-benzoylamino-5-(2-acetoxy)acetyl-2,3,4,5-tetrahydro-1H-1,5-benzodiazepine-1-acetylamino]-4-oxo-butyric acid]
Ki (ICE; Table 17): 400 nM
IC50 ([1]; Homo sapiens, PBMC, Table 17): > 20000 nM
IC50 (IL-1β, human whole blood; Homo sapiens, Table 17): > 20000 nM

O=C[C@H](CC(=O)O)NC(=O)[C@@H]1CCCN2C(=O)CC[C@H](NC(=O)C(=O)Nc3ccc(Cl)cc3)C(=O)N12 [Compound 500]
Ki (ICE; Table 17): 25 nM
IC50 ([1]; Homo sapiens, PBMC, Table 17): 1800 nM
IC50 (IL-1β, human whole blood; Homo sapiens, Table 17): 1800 nM

Nc1cc2ccccc2cc1C(=O)N[C@H]1CCC(=O)N2CCC[C@@H](C(=O)N[C@H](C=O)CC(=O)O)N2C1=O [Compound 440]
Ki (ICE; Table 5): 2.3 nM
IC50 [1, 2]: 5000 nM
IC50 (IL-1β, human whole blood; [4]): 2000 nM

CC(=O)N1C[C@H](NC(=O)c2ccc3c(c2)OCO3)C(=O)N(CC(=O)N[C@H](C=O)CC(=O)O)c2ccccc21 [Compound 628]
Ki (ICE; Table 5): 36 nM
IC50 [1, 2]: 2750 nM
IC50 (IL-1β, human whole blood; [4]): > 20000 nM

CC(=O)Nc1ccc(C(=O)N[C@H]2CN(C(=O)CO)c3ccccc3N(CC(=O)N[C@H](C=O)CC(=O)O)C2=O)cc1Cl [Compound 914]
Ki (ICE; Table 17): 5.2 nM
IC50 ([1]; Homo sapiens, PBMC, Table 17): 2600 nM
IC50 (IL-1β, human whole blood; Homo sapiens, Table 17): 2800 nM

CC(=O)N1C[C@H](NC(=O)c2cccc3ccccc23)C(=O)N(CC(=O)N[C@H](C=O)CC(=O)O)c2ccccc21 [Compound 621]
Ki (ICE; Table 5): 7.2 nM
IC50 [1, 2]: 1300 nM
IC50 (IL-1β, human whole blood; [4]): > 20000 nM

CN(C)c1ccc(C(=O)N[C@H]2CN(C(=O)CO)c3ccccc3N(CC(=O)N[C@H](C=O)CC(=O)O)C2=O)cc1 [Compound 913]
Ki (ICE; Table 17): 4.5 nM
IC50 ([1]; Homo sapiens, PBMC, Table 17): 2400 nM
IC50 (IL-1β, human whole blood; Homo sapiens, Table 17): 7000 nM

COc1ccc(C(=O)C(=O)N[C@H]2CN(C(C)=O)c3ccccc3N(CC(=O)N[C@H](C=O)CC(=O)O)C2=O)cc1 [Compound 704]
Ki (ICE; Table 17): 30 nM
IC50 ([1]; Homo sapiens, PBMC, Table 17): 2600 nM
IC50 (IL-1β, human whole blood; Homo sapiens, Table 17): 9800 nM

CC(=O)N1C[C@H](NC(=O)c2ccc3cc(O)ccc3c2)C(=O)N(CC(=O)N[C@H](C=O)CC(=O)O)c2ccccc21 [Compound 622]
Ki (ICE; Table 5): 35 nM
IC50 [1, 2]: 1300 nM
IC50 (IL-1β, human whole blood; [4]): > 20000 nM

O=C[C@H](CC(=O)O)NC(=O)[C@@H]1CCCN2C(=O)CC[C@H](NC(=O)c3ccc(OCc4ccccc4)cc3)C(=O)N12 [Compound 499]
Ki (ICE; Table 5): 3.5 nM
IC50 [1, 3]: 800 nM
IC50 [1, 2]: 1200 nM
IC50 (IL-1β, human whole blood; [4]): 9000 nM

O=C[C@H](CC(=O)O)NC(=O)CN1C(=O)[C@@H](NC(=O)c2ccc3c(c2)OCO3)CN(C(=O)CO)c2ccccc21 [Compound 910]
Ki (ICE; Table 17): 10 nM
IC50 ([1]; Homo sapiens, PBMC, Table 17): 3400 nM
IC50 (IL-1β, human whole blood; Homo sapiens, Table 17): 3800 nM

CCn1nc(C)cc1C(=O)N[C@H]1CCC(=O)N2CCC[C@@H](C(=O)N[C@H](C=O)CC(=O)O)N2C1=O [Compound 422]
Ki (ICE; Table 5): 50 nM
IC50 [1, 2]: 2200 nM
IC50 (IL-1β, human whole blood; [4]): 1200 nM

CS(=O)(=O)c1ccc(C(=O)N[C@H]2CCC(=O)N3CCC[C@@H](C(=O)N[C@H](C=O)CC(=O)O)N3C2=O)cc1 [Compound 460]
Ki (ICE; Table 5): 115 nM
IC50 [1, 2]: 400 nM
IC50 (IL-1β, human whole blood; [4]): 2400 nM

CC(=O)N1C[C@H](NC(=O)c2nccc3ccccc23)C(=O)N(CC(=O)N[C@H](C=O)CC(=O)O)c2ccccc21 [Compound 620]
Ki (ICE; Table 5): 35 nM
IC50 [1, 2]: 1000 nM
IC50 (IL-1β, human whole blood; [4]): 19000 nM

CNC(=O)Nc1ccc(C(=O)N[C@H]2CCC(=O)N3CCC[C@@H](C(=O)N[C@H](C=O)CC(=O)O)N3C2=O)cc1 [Compound 489]
Ki (ICE; Table 5): 6 nM
IC50 [1, 3]: 1700 nM
IC50 [1, 2]: 2250 nM
IC50 (IL-1β, human whole blood; [4]): 15000 nM

O=C[C@H](CC(=O)O)NC(=O)[C@@H]1CCCN2C(=O)CC[C@H](NC(=O)c3ccc(OC(=O)c4ccc(O)cc4)cc3)C(=O)N12 [Compound 457]
Ki (ICE; Table 5): 6.2 nM
IC50 [1, 2]: 2000 nM
IC50 (IL-1β, human whole blood; [4]): 3500 nM

COc1cccc(OC)c1C(=O)C(=O)NN1CCC(=O)N2CCC[C@@H](C(=O)N[C@H](C=O)CC(=O)O)N2C1=O [Compound 1112]
Ki (ICE; Table 17): 3.5 nM
IC50 ([1]; Homo sapiens, PBMC, Table 17): 1800 nM
IC50 (IL-1β, human whole blood; Homo sapiens, Table 17): 2300 nM
